Where a SMILES comes first, the peptide text is derived from it. Bridges are numbered along the chain shown (N, C = ends).
How the values were obtained:
Type in all cases: binding
HtrA1 = test: phage spot ELISA on HtrA1; conditions: for ELISA s/n: Spot ELISA signal/noise; for ELISA s/n / ELISA signal: Fig 9A; for ELISA signal: Spot ELISA
Source text: To determine the performance of the libraries for ligand discovery we chose a panel of eight protein targets, which have no structural homology and a wide mass range (Fig 7C). We screened these eight targets with solution panning strategy and two additional plate panning for CD8α/β and CD28, thus ten panning campaigns in total. We consider clones showing spot phage ELISA signal > 0.3 and signal/noise ratio > 2 as positive hits. […] We also obtained the NGS data for these screening and the ranking of clones for their enrichment along the rounds of screening was analyzed and considered the top-ranking clones as potential hits. Based on their sequence diversity we selected 16 potential hits spanning five protein targets for peptide synthesis in their linear form. Seven of these are hits with positive phage ELISA signal and nine were selected based on NGS ranking without spot ELISA available. Subsequently, we conducted in vitro folding experiments on these peptides in various buffers.
(§1) The 5ji4 libraries were constructed following the Kunkel mutagenesis method and the solution panning protocol was followed as previously described. After four to five rounds of binding selection, while eluted pool was subjected to NGS analysis, individual phage clones were also picked and analyzed with phage spot ELISA. Positive clones were subjected to SANGER sequencing.
Among these five hits, A7, which is the SANGER hit, was picked for affinity maturation. Following the same strategy, one soft- and one hard-randomization library was designed targeting the 5JI4 variable regions 1 and 2, respectively. Two libraries were each panned as previously described. Both phage spot ELISA coupled with SANGER sequencing and NGS analysis were applied after affinity maturation.

CD8α = test: phage spot ELISA on CD8α; conditions: S3 Table sheet CD8α
Source text: (§2) To determine the performance of the libraries for ligand discovery we chose a panel of eight protein targets, which have no structural homology and a wide mass range (Fig 7C). We screened these eight targets with solution panning strategy and two additional plate panning for CD8α/β and CD28, thus ten panning campaigns in total. We consider clones showing spot phage ELISA signal > 0.3 and signal/noise ratio > 2 as positive hits. At least one binding hit was discovered for nine out of the ten panning campaigns, surpassing the success rate of the best DCP scaffolds reported previously. We also obtained the NGS data for these screening and the ranking of clones for their enrichment along the rounds of screening was analyzed and considered the top-ranking clones as potential hits. Based on their sequence diversity we selected 16 potential hits spanning five protein targets for peptide synthesis in their linear form. Seven of these are hits with positive phage ELISA signal and nine were selected based on NGS ranking without spot ELISA available. Subsequently, we conducted in vitro folding experiments on these peptides in various buffers. We observed a strong propensity for spontaneous folding regardless of the buffer condition. All HCP hits tested successfully folded into three-disulfide-containing product within two days in a universal buffer system (PBS, pH 7.4, 50% DMSO) without the need for a redox pair, as shown in Fig 8A. The binding of these folded peptides to their respective target proteins was confirmed using SPR (Table 4 and S1 Data) and binding kinetics are exemplified by the high-affinity peptide 5ji4-CRD7-2 (see Fig 8B). Among seven selected ELISA-positive hits, all of them were successfully synthesized and in vitro folded with three disulfide bonds and five were proven to be validated binders by SPR (Table 4). Nine peptides selected from the NGS ranking were synthesized and folded with the expected number of disulfide bonds and five of them bound to their target with affinities in the μM range as determined by SPR (Table 4). In general, binding affinities for these SPR-validated initial hits are weak, with Kd values in the micromolar range and fast on- and off-rates. There are two exceptions with binding affinities in the nanomolar range.
as §1

CRD7 = test: phage spot ELISA on CRD7; conditions: S3 Table sheet CRD7; for S/N: phage spot ELISA signal/noise; for ELISA: phage spot ELISA signal
Source text: as §2, §1

| Compound | ELISA s/n (HtrA1) | ELISA signal (HtrA1) | S/N (CRD7) | ELISA (CRD7) | further results |
| --- | --- | --- | --- | --- | --- |
| CSCC[C@@H]1NC(=O)[C@H](CO)NC(=O)[C@@H]2CSSC[C@H](NC(=O)[C@H](CCC(=O)O)NC(=O)[C@H](C)NC(=O)[C@H](CO)NC(=O)[C@H](CO)NC(=O)[C@H]([C@@H](C)O)NC(=O)[C@H](CCSC)NC(=O)[C@H](Cc3ccccc3)NC(=O)[C@H]([C@@H](C)O)NC(=O)[C@H](Cc3c[nH]c4ccccc34)NC(=O)CNC(=O)[C@@H]3CCCN3C(=O)[C@H](CC(C)C)NC1=O)C(=O)N[C@@H](CCC(=O)O)C(=O)N[C@@H](CCCNC(=N)N)C(=O)N[C@@H](CC(C)C)C(=O)N[C@H]1CSSC[C@H](NC(=O)[C@H]([C@@H](C)O)NC(=O)[C@H](CCCNC(=N)N)NC(=O)[C@H](CC(C)C)NC(=O)CNC(=O)[C@H](CC(C)C)NC(=O)[C@H](CCCNC(=N)N)NC(=O)[C@H](CC(=O)O)NC1=O)C(=O)N[C@@H](CCCNC(=N)N)C(=O)N[C@@H](C(C)C)C(=O)N[C@@H](Cc1c[nH]cn1)C(=O)N[C@H](C(=O)NCC(=O)O)CSSC[C@H](NC(=O)[C@@H]1CCCN1)C(=O)N[C@@H](CCC(=O)O)C(=O)N2 [5ji4_A7.B7B2] (H-PCECSMLPGWTFMTSSAECERLCDRLGLRTCRVHCG-OH; disulfide 2-35, 4-19, 23-31) | 7.2 | 3.54 | – | – | – |
| CC[C@H](C)[C@@H]1NC(=O)[C@H]([C@@H](C)O)NC(=O)[C@@H]2CSSC[C@H](NC(=O)[C@H](CCC(=O)O)NC(=O)[C@H](C)NC(=O)[C@H](CO)NC(=O)[C@H](CO)NC(=O)[C@H]([C@@H](C)O)NC(=O)[C@H](CC(C)C)NC(=O)[C@H](Cc3ccccc3)NC(=O)[C@H](Cc3c[nH]cn3)NC(=O)[C@H](Cc3c[nH]c4ccccc34)NC(=O)CNC(=O)[C@@H]3CCCN3C(=O)[C@H](CC(C)C)NC1=O)C(=O)N[C@@H](C)C(=O)N[C@@H](CCCNC(=N)N)C(=O)N[C@@H](CC(C)C)C(=O)N[C@H]1CSSC[C@H](NC(=O)[C@H]([C@@H](C)O)NC(=O)[C@H](CCCNC(=N)N)NC(=O)[C@H](CC(C)C)NC(=O)CNC(=O)[C@H](CC(C)C)NC(=O)[C@H](CCCNC(=N)N)NC(=O)[C@H](CC(=O)O)NC1=O)C(=O)N[C@@H](CCCNC(=N)N)C(=O)N[C@@H](C(C)C)C(=O)N[C@@H](Cc1c[nH]cn1)C(=O)N[C@H](C(=O)NCC(=O)O)CSSC[C@H](NC(=O)[C@@H]1CCCN1)C(=O)N[C@@H](CCC(=O)O)C(=O)N2 [5ji4_A7.B9B2] (H-PCECTILPGWHFLTSSAECARLCDRLGLRTCRVHCG-OH; disulfide 2-35, 4-19, 23-31) | 7.0 | 3.67 | – | – | – |
| CC[C@H](C)[C@@H]1NC(=O)[C@H](CO)NC(=O)[C@@H]2CSSC[C@H](NC(=O)[C@H](CCC(=O)O)NC(=O)[C@H](C)NC(=O)[C@H](CO)NC(=O)[C@H](CO)NC(=O)[C@H]([C@@H](C)O)NC(=O)[C@H](CC(C)C)NC(=O)[C@H](Cc3ccccc3)NC(=O)[C@H](Cc3c[nH]cn3)NC(=O)[C@H](Cc3c[nH]c4ccccc34)NC(=O)CNC(=O)[C@H](CCCNC(=N)N)NC(=O)[C@H](CC(C)C)NC1=O)C(=O)N[C@@H](CCC(=O)O)C(=O)N[C@@H](CCCNC(=N)N)C(=O)N[C@@H](CC(C)C)C(=O)N[C@H]1CSSC[C@H](NC(=O)[C@H]([C@@H](C)O)NC(=O)[C@H](CCCNC(=N)N)NC(=O)[C@H](CC(C)C)NC(=O)CNC(=O)[C@H](CC(C)C)NC(=O)[C@H](CCCNC(=N)N)NC(=O)[C@H](CC(=O)O)NC1=O)C(=O)N[C@@H](CCCNC(=N)N)C(=O)N[C@@H]([C@@H](C)CC)C(=O)N[C@@H](Cc1c[nH]cn1)C(=O)N[C@H](C(=O)NCC(=O)O)CSSC[C@H](NC(=O)[C@@H]1CCCN1)C(=O)N[C@@H](CCC(=O)O)C(=O)N2 [5ji4_A7.D7B2] (H-PCECSILRGWHFLTSSAECERLCDRLGLRTCRIHCG-OH; disulfide 2-35, 4-19, 23-31) | 5.3 | 3.45 | – | – | – |
| CC[C@H](C)[C@@H]1NC(=O)[C@H]([C@@H](C)O)NC(=O)[C@@H]2CSSC[C@H](NC(=O)[C@H](CCC(=O)O)NC(=O)[C@H](C)NC(=O)[C@H](CO)NC(=O)[C@H](CO)NC(=O)[C@H]([C@@H](C)O)NC(=O)[C@H](CC(C)C)NC(=O)[C@H](Cc3ccccc3)NC(=O)[C@H](Cc3ccc(O)cc3)NC(=O)[C@H](Cc3c[nH]c4ccccc34)NC(=O)CNC(=O)[C@@H]3CCCN3C(=O)[C@H](CC(C)C)NC1=O)C(=O)N[C@@H](CCC(=O)O)C(=O)N[C@@H](CCCNC(=N)N)C(=O)N[C@@H](CC(C)C)C(=O)N[C@H]1CSSC[C@H](NC(=O)[C@H]([C@@H](C)O)NC(=O)[C@H](CCCNC(=N)N)NC(=O)[C@H](CC(C)C)NC(=O)CNC(=O)[C@H](CC(C)C)NC(=O)[C@H](CCCNC(=N)N)NC(=O)[C@H](CC(=O)O)NC1=O)C(=O)N[C@@H](CCCNC(=N)N)C(=O)N[C@@H](C(C)C)C(=O)N[C@@H](Cc1c[nH]cn1)C(=O)N[C@H](C(=O)NCC(=O)O)CSSC[C@H](NC(=O)[C@@H]1CCCN1)C(=O)N[C@@H](CCC(=O)O)C(=O)N2 [5ji4_A7.H5B2] (H-PCECTILPGWYFLTSSAECERLCDRLGLRTCRVHCG-OH; disulfide 2-35, 4-19, 23-31) | 7.6 | 3.59 | – | – | – |
| CC[C@H](C)[C@@H]1NC(=O)[C@H](CCCNC(=N)N)NC(=O)[C@@H]2CSSC[C@H](NC(=O)[C@H](CC(C)C)NC(=O)[C@H](CCCNC(=N)N)NC(=O)[C@H](C)NC(=O)[C@@H]3CSSC[C@H](NC(=O)[C@H](CCC(=O)O)NC(=O)[C@@H](NC(=O)[C@@H]4CCCN4)CSSC[C@@H](C(=O)NCC(=O)O)NC(=O)[C@H](Cc4c[nH]cn4)NC1=O)C(=O)N[C@@H](CO)C(=O)N[C@@H]([C@@H](C)CC)C(=O)N[C@@H](CC(C)C)C(=O)N1CCC[C@H]1C(=O)NCC(=O)N[C@@H](Cc1c[nH]c4ccccc14)C(=O)N[C@@H](Cc1c[nH]cn1)C(=O)N[C@@H](Cc1ccccc1)C(=O)N[C@@H](CC(C)C)C(=O)N[C@@H]([C@@H](C)O)C(=O)N[C@@H](CO)C(=O)N[C@@H](CO)C(=O)N[C@@H](C)C(=O)N[C@@H](CCC(=O)O)C(=O)N3)C(=O)N[C@@H](CC(=O)O)C(=O)N[C@@H](CCCNC(=N)N)C(=O)N[C@@H](CC(C)C)C(=O)NCC(=O)N[C@@H](CC(C)C)C(=O)N[C@@H](CCCNC(=N)N)C(=O)N[C@@H]([C@@H](C)O)C(=O)N2 [5ji4_A7.c1] (H-PCECSILPGWHFLTSSAECARLCDRLGLRTCRIHCG-OH; disulfide 2-35, 4-19, 23-31) | 7.5 | 3.55 | – | – | – |
| PAMLLQRNRPYGLLPEECERLCRKLGVTTACHCG [CD8α clone 1, phage clone, 5JI4 library, CD8α panning] | – | – | – | – | S/N (CD8α; phage spot ELISA signal/noise): 39.9; ELISA (CD8α; phage spot ELISA signal): 4.75 |
| PCECIWANYVGYPFSSEECERLCRKLGVTNCRVHCG [CRD7 clone 3, phage clone, 5JI4 library, CRD7 panning] | – | – | 2.388 | 0.289 | – |
| PCECNYIPWIWIPQSSEECERLCRKLGVTNCRVHCG [CRD7 clone 5, phage clone, 5JI4 library, CRD7 panning] | – | – | 3.588 | 0.244 | – |
| PCECPATVHWYFIGSSEECERLCRKLGVTNSRVHCD [CRD7 clone 1, phage clone, 5JI4 library, CRD7 panning] | – | – | 7.871 | 0.488 | – |
| PCECPIRPYGVPVKSSEECERLCRKLGVTNCRVHCG [CRD7 clone 2, phage clone, 5JI4 library, CRD7 panning] | – | – | 4.654 | 0.377 | – |
| PCECPSSVYWYFISSSEECERLCRKLGVTNCRVHCG [CRD7 clone 6, phage clone, 5JI4 library, CRD7 panning] | – | – | 3.75 | 0.225 | – |
| PCECRWMFYSTWELSSEECERLCRKLGVTNCRVHCG [CRD7 clone 4, phage clone, 5JI4 library, CRD7 panning] | – | – | 4 | 0.28 | – |
| PCECTILRGWHFLTSSAECERLCRKLGVTNCRVHCG [HtrA1 clone 1, phage clone, 5JI4 library, HtrA1 panning; sole HtrA1 hit, probably 5ji4-A7] | – | – | – | – | S/N (HtrA1; phage spot ELISA signal/noise, S3 Table sheet HtrA1): 8.86; ELISA (HtrA1; phage spot ELISA signal, S3 Table sheet HtrA1): 1.0205 |

Reference: publication PMC11611271, “Rapid prediction of key residues for foldability by machine learning model enables the design of highly functional libraries with hyperstable constrained peptide scaffolds” (PLOS Computational Biology, 2024)
